These results are taken from patent US4233224A, “Coriolin derivatives” (priority 1978, dated 1980).

Values after ≈ are worked out from the molar mass of the structure shown. Read-outs that look alike come from different tables or passages of the source.

Data set [1] deals with HeLa S3 cells. Briefly: cells. The data set is classed as cell-based. The following applies: Homo sapiens, 72 h, 3 days, read-out: ID50 (the source's name).
In data set [2] the test system is HeLa S3 cells. Briefly: cells. In kind it is cell-based. The conditions noted are these: for inhibition at 1 µg/mL: 1 μg/ml; for inhibition at 2 µg/mL: 2 μg/ml. The procedure:
The HeLa S3 cells were scattered in a plastic laboratory dish, 6 cm in diameter, at the rate of 0.7×10^5 cells/plate by using as a medium an Eagle's MEM (Minimum Essential Medium) [Science, 30, 432-437 (1959)] containing 60 μg/ml of kanamycin and 10% calf serum. On the 2nd day, the medium was removed and a measured quantity of the compound of this invention was added together with a fresh serum-impregnated Eagle's MEM. The cell population at this time was 1.58×10^5 cells/plate. After adding the compound (I) of this invention thereto, cultures were grown for 3 days and then the medium was removed, followed by washing with physiological saline, treatment with 0.05% trypsin at room temperature for about 15 minutes and pipetting to disperse the cells. The cell number was counted by a counter and percent inhibition (%) was calculated from the number of the control cells (to which no compound was added) to determine […]. [formula]

The subject of data set [3] is L-1210 (lymphatic leukemia strain). The data set can be described thus: Life-prolonging effect in cancer (L-1210) affected mice. The data set is classed as in vivo, mouse (BDF1). The conditions noted are these: once a day for 10 days, from 24 hours after intraperitoneal inoculation of 1×10^5 L-1210 cells, BDF1 mice, compared with control group. The procedure:
The L-1210 cells (1×10^5, 0.05 ml) were inoculated into the BDF1 mouse abdorminal cavities (BDF1 means a strain name of mouse), and after lapse of 24 hours, a measured amount of preparation (suspended in 0.5% CMC aqueous solution) was administered once a day for a period of 10 days.
The mice were observed till death, and by comparing the average number of surviving days of the tested mice with that of the control group (to which a 0.5% CMC aqueous solution alone was given), the life prolongation rate was calculated from the following formula: [drawing 17]

The conditions of data set [4]: known coriolin type compounds; J. Antibiotics, Tetrahedron Letters; cited from earlier work.
Setting [5] is: Homo sapiens, 72 h, 0.5 μg/ml, HeLa S3 cells, 3 days, read-out: Percent inhibition.
Where [6] appears, read: Homo sapiens, 72 h, HeLa S3 cells, 3 days, read-out: Percent inhibition.
[7] abbreviates: Homo sapiens, HeLa S3, 72 h, read-out: Percent inhibition.

`CCCCCCCC(=O)O[C@@H]1[C@@H]2[C@H](CC1(C)C)[C@H](O)[C@@]13O[C@@H]1C(=O)[C@@]1(CO1)[C@@]23C` [5-dehydrocoriolin B VI, 5-dehydrocoriolin B, reference compound]: the IC50 in the data set with HeLa S3 cells [1] came to 0.76 µg/mL (≈ 1.87 µM). Further, the inhibition – broadly, the percentage by which the read-out fell short of the control – at 0.5 µg/mL in the data set on HeLa S3 cells [2] (setting [5]) turned out to be 20%. Moreover, in the data set with HeLa S3 cells [2] (setting [6]), the inhibition at 1 µg/mL worked out at 77.6%. The Life-prolonging effect (life prolongation rate) in data set [3] (dose 6 μg/mouse × 10) turned out to be 106%; in data set [3] (dose 12.5 μg/mouse × 10), 138%; in data set [3] (dose 25 μg/mouse × 10), 137%; in data set [3] (dose 50 μg/mouse × 10), 144%. Further, the “anti-tumor activity (in words)” value in data set [4] is given as “having an anti-tumor activity”.
As for `C=C1CC2(OC1=O)[C@H]1O[C@]13C1(CC(=C)C(=O)O1)[C@H]1CC(C)(C)[C@H](OC(=O)CCCCCCC)[C@H]1[C@]3(C)[C@]21CO1` (stereo partly drawn) [V, 1α-octanoyl-4β,15:6β,7β-dioxide-5(19-methylene-18-butanolide)-8(22-methylene-21-butanolide)hirsutane], the IC50 in the data set on HeLa S3 cells [2] (Homo sapiens, HeLa S3, 72 h, read-out: ID50) stood at 0.47 µg/mL (≈ 0.869 µM). Moreover, in the data set with HeLa S3 cells [2] (setting [7]), the inhibition at 0.25 µg/mL stood at 22.4%. Besides, in the data set with HeLa S3 cells [2] (setting [7]), the inhibition at 0.5 µg/mL worked out at 56.9%. For the same compound, the Life-prolonging effect (life prolongation rate) stood at 99% in data set [3] (dose 100 μg/mouse × 10) and 120% in data set [3] (dose 200 μg/mouse × 10).
Consider `C=C1CC2(OC1=O)[C@H]1O[C@]13C(=O)[C@H]1CC(C)(C)[C@H](OC(=O)CCCCCCC)[C@H]1[C@]3(C)[C@]21CO1` (stereo partly drawn) [IV, 1α-octanoyl-4β,15:6β,7β-dioxide-5(19-methylene-18-butanolide)-8-oxo-hirsutane], for which, in the data set on HeLa S3 cells [1], the IC50 came out at 0.6 µg/mL (≈ 1.27 µM). Also, the inhibition at 0.5 µg/mL in the data set on HeLa S3 cells [2] (setting [5]) is 43.3%. Also, the inhibition at 1 µg/mL with HeLa S3 cells [2] (setting [6]) was 71.6%. For the same compound, the Life-prolonging effect (life prolongation rate) came out at 99% in data set [3] (dose 12.5 μg/mouse × 10); 113% in data set [3] (dose 25 μg/mouse × 10); 106% in data set [3] (dose 50 μg/mouse × 10); 127% in data set [3] (dose 100 μg/mouse × 10); 127% in data set [3] (dose 200 μg/mouse × 10).
As for coriolin, the “anti-tumor activity (in words)” value in data set [4] is recorded as “having an anti-tumor activity”.
As to `CCCCCCCC(=O)O[C@@H]1[C@@H]2[C@H](CC1(C)C)C(=O)[C@@]13O[C@@H]1C(=O)[C@@]1(CO1)[C@@]23C` [5,8-dehydrocoriolin B], the “anti-tumor activity (in words)” value in data set [4] is reported as “having an anti-tumor activity”.
With coriolin C, the “anti-tumor activity (in words)” value in data set [4] is recorded as “having an anti-tumor activity”.
`C=C1CC2(OC1=O)[C@H]1O[C@]13[C@@H](O)[C@H]1CC(C)(C)[C@H](OC(=O)CCCCCCC)[C@H]1[C@]3(C)[C@]21CO1` (stereo partly drawn) [III, 1α-octanoyl-4β,15:6β,7β-dioxide-5(19-methylene-18-butanolide)-8β-hydroxy-hirsutane]: in the data set with HeLa S3 cells [1], the IC50 is 1.1 µg/mL (≈ 2.32 µM). Further, in the data set on HeLa S3 cells [2] (setting [6]), the inhibition at 1 µg/mL turned out to be 42.9%. Also, the inhibition at 2 µg/mL in the data set with HeLa S3 cells [2] (setting [6]) came out at 96.6%. Besides, the Life-prolonging effect (life prolongation rate) was determined as 99% in data set [3] (dose 6 μg/mouse × 10); 106% in data set [3] (dose 12.5 μg/mouse × 10); 127% in data set [3] (dose 25 μg/mouse × 10); 141% in data set [3] (dose 50 μg/mouse × 10); 148% in data set [3] (dose 100 μg/mouse × 10); 148% in data set [3] (dose 200 μg/mouse × 10).
For `C=C1CC2(OC1=O)[C@H]1CC(C)(C)[C@H](OC(=O)CCCCCCC)[C@H]1[C@]1(C)[C@]3(CO3)[C@@H](O)[C@H]3O[C@@]321` (stereo partly drawn) [I, 1α-octanoyl-4β, 15:6β,7β-dioxide-5β-hydroxy-8(22-methylene-21-butanolide)hirsutane], the IC50 in the data set with HeLa S3 cells [1] was 2.1 µg/mL (≈ 4.42 µM). Moreover, the inhibition at 2 µg/mL in the data set with HeLa S3 cells [2] (setting [6]) was 48%. Besides, the inhibition at 4 µg/mL in the data set with HeLa S3 cells [2] (Homo sapiens, 72 h, 4 μg/ml, HeLa S3 cells, 3 days, read-out: Percent inhibition) came out at 76.2%. In addition, the values for the Life-prolonging effect (life prolongation rate) in data set [3] (dose 50 μg/mouse × 10), in data set [3] (dose 100 μg/mouse × 10) and in data set [3] (dose 200 μg/mouse × 10) were 96%, 111% and 130%, respectively.
Regarding `C=C1CC2(OC1=O)[C@H]1CC(C)(C)[C@H](OC(=O)CCCCCCC)[C@H]1[C@]1(C)[C@]3(CO3)C(=O)[C@H]3O[C@@]321` (stereo partly drawn) [II, 1α-octanoyl-4β,15:6β,7β-dioxide-5-oxo-8(22-methylene-21-butanolide)hirsutane], in the data set with HeLa S3 cells [1], the IC50 came to 0.12 µg/mL (≈ 0.254 µM). Moreover, the “inhibiting growth of the HeLa S3 cells (in words)” value in the data set with HeLa S3 cells [2] (HeLa S3 cells) is “works marvelously in preventing growth of the cancerous cells”. For the same compound, in the data set on HeLa S3 cells [2] (Homo sapiens, 72 h, 0.1 μg/ml, HeLa S3 cells, 3 days, read-out: Percent inhibition), the inhibition at 0.1 µg/mL came to 40.2%. In the data set with HeLa S3 cells [2] (Homo sapiens, 72 h, 0.2 μg/ml, HeLa S3 cells, 3 days, read-out: Percent inhibition), the inhibition at 0.2 µg/mL is 83.2%. The “toxicity (in words)” value in the data set with HeLa S3 cells [2] (stated with ID50, HeLa S3 cells) is on record as “extremely low in toxicity”.
